{"source": "ChEMBL document CHEMBL1201862", "about": "“PubChem BioAssay data set” (2004)", "key": {"[1]": {"biological_target": "Neuropeptide Y receptor type 1 (Homo sapiens, UniProt P25929)", "sequence (P25929 whole entry)": "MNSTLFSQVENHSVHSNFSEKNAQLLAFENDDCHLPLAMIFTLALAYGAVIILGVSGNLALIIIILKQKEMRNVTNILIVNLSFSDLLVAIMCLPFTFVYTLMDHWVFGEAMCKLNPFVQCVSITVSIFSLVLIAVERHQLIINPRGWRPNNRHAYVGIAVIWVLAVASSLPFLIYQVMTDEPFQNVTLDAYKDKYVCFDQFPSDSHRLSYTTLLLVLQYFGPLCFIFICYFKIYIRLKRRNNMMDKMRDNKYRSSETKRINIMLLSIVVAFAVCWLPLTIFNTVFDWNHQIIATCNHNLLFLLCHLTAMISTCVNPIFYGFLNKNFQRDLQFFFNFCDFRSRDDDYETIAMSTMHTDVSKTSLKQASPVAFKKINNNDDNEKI", "format": "functional"}, "[2]": {"biological_target": "Neuropeptide Y receptor type 2 (Homo sapiens, UniProt P49146)", "sequence (P49146 whole entry)": "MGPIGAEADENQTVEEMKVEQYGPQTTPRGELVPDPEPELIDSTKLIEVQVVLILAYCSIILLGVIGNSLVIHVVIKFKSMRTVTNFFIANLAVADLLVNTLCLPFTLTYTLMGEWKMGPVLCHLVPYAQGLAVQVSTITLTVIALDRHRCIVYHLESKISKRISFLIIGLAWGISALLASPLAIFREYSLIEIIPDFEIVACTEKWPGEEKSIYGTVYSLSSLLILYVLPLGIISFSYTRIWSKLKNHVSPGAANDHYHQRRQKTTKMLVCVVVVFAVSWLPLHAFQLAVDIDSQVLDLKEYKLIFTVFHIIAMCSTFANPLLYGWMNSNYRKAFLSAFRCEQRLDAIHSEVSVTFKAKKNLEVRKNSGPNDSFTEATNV", "format": "functional, cell-based"}, "[3]": {"test_system": "HeLa", "test": "Cytotoxicity counterscreen assay for transcriptional activators of heat shock protein 70 (Hsp70). [Related pubchem assays: 1203, 1252 ]", "format": "functional", "conditions": "Homo sapiens"}, "[4]": {"biological_target": "G2/mitotic-specific cyclin-B1 (Homo sapiens, UniProt P14635)", "sequence (P14635 whole entry)": "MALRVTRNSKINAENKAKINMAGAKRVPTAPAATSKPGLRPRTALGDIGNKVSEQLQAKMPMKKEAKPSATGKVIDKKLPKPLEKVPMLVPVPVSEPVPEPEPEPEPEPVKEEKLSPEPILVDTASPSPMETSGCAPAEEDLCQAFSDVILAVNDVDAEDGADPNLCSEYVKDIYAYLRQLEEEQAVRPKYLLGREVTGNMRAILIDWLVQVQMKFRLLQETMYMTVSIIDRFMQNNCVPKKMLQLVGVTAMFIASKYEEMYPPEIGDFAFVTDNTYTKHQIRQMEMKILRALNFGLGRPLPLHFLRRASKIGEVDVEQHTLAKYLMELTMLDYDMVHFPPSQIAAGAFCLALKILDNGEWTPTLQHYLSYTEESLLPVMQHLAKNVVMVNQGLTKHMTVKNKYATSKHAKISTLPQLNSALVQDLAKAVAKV", "test": "Counterscreen assay for inhibitors of Wee1 degradation: dose response cell-based assay to identify inhibitors of cyclin B degradation. [Related pubchem assays: 1410, 1321 ]", "format": "functional"}, "[5]": {"biological_target": "Wee1-like protein kinase (Homo sapiens, UniProt P30291)", "sequence (P30291 whole entry)": "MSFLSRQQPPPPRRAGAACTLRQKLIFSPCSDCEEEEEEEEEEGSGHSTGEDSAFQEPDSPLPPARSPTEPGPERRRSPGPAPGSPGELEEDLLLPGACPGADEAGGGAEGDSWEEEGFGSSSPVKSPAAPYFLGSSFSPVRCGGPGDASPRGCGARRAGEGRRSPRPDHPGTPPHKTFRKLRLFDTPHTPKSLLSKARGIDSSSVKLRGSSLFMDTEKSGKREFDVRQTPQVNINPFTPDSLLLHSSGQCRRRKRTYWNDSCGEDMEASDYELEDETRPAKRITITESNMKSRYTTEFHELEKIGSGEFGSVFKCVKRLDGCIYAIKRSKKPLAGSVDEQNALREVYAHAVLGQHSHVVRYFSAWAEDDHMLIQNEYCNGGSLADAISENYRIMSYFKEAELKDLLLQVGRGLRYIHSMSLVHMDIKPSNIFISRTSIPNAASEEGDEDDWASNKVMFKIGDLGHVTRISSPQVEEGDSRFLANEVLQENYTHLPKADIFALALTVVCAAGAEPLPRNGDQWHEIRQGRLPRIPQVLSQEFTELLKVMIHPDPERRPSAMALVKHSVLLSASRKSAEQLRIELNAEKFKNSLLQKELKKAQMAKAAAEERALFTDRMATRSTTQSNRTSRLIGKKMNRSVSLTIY", "test": "Dose Response Cell-based Assay for Inhibitors of Wee1 Degradation. [Related pubchem assays: 1410, 1321 ]", "format": "functional"}, "[6]": {"biological_target": "Mitogen-activated protein kinase 10 (Homo sapiens, UniProt P53779)", "sequence (P53779 whole entry)": "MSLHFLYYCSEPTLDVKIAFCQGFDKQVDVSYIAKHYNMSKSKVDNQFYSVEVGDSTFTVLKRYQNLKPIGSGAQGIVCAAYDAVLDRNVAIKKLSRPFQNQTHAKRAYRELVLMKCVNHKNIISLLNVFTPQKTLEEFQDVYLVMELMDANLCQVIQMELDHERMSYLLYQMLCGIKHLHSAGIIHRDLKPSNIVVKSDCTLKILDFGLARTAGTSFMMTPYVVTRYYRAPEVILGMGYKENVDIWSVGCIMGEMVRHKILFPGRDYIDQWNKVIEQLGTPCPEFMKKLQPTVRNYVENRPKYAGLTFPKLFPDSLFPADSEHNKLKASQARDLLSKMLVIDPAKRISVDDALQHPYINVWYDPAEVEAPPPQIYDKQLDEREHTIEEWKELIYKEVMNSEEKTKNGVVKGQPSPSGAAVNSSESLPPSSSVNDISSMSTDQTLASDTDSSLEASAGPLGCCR", "test": "Dose response biochemical screening assay for inhibitors of c-Jun N-Terminal Kinase 3 (JNK3). [Related pubchem assays: 746 ]"}, "[7]": {"test_system": "Jurkat", "test": "blockers of NF-kB activation in T cells – Jurkat, luciferase reporter, luminescence, B- and T-cell, dose response (AID 489004);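 also: NF-kB luciferase reporter Jurkat cells stimulated with PMA plus ionomycin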", "format": "functional, cell-based", "conditions": "Homo sapiens"}, "[8]": {"test": "HEK-293T viability loss, compound-treated – cell-based, uHTS hits, cytotoxicity control for B/T-cell NF-kB inhibitor project, dose response (AID 489019)", "format": "functional"}, "[9]": {"biological_target": "T1, Mucolipin-3 (Homo sapiens, UniProt Q8TDD5)", "T1 sequence (Q8TDD5 whole entry)": "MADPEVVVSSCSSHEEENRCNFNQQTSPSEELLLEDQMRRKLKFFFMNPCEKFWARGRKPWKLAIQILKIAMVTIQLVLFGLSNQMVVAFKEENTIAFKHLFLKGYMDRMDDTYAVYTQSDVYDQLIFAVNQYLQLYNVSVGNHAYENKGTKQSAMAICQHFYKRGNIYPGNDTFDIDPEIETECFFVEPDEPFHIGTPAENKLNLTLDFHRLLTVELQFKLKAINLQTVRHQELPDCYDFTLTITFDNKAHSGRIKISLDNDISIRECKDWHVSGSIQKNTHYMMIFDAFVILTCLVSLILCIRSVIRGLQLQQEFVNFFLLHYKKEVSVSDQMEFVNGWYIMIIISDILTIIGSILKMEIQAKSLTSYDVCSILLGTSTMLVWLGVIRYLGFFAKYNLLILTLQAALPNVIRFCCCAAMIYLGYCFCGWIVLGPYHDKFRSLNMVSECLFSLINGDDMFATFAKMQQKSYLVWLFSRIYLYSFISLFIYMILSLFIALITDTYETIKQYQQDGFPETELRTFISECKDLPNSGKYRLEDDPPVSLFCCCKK", "test": "Dose response cell-based high-throughput screening assay for agonists of the transient receptor potential channel ML3 (TRPML3). [Related pubchem assays: 1526, 1424, 1448 ]", "format": "functional"}, "[10]": {"biological_target": "T2, Ion channel NompC (Danio rerio, UniProt Q7T1G6)", "T2 sequence (Q7T1G6 whole entry)": "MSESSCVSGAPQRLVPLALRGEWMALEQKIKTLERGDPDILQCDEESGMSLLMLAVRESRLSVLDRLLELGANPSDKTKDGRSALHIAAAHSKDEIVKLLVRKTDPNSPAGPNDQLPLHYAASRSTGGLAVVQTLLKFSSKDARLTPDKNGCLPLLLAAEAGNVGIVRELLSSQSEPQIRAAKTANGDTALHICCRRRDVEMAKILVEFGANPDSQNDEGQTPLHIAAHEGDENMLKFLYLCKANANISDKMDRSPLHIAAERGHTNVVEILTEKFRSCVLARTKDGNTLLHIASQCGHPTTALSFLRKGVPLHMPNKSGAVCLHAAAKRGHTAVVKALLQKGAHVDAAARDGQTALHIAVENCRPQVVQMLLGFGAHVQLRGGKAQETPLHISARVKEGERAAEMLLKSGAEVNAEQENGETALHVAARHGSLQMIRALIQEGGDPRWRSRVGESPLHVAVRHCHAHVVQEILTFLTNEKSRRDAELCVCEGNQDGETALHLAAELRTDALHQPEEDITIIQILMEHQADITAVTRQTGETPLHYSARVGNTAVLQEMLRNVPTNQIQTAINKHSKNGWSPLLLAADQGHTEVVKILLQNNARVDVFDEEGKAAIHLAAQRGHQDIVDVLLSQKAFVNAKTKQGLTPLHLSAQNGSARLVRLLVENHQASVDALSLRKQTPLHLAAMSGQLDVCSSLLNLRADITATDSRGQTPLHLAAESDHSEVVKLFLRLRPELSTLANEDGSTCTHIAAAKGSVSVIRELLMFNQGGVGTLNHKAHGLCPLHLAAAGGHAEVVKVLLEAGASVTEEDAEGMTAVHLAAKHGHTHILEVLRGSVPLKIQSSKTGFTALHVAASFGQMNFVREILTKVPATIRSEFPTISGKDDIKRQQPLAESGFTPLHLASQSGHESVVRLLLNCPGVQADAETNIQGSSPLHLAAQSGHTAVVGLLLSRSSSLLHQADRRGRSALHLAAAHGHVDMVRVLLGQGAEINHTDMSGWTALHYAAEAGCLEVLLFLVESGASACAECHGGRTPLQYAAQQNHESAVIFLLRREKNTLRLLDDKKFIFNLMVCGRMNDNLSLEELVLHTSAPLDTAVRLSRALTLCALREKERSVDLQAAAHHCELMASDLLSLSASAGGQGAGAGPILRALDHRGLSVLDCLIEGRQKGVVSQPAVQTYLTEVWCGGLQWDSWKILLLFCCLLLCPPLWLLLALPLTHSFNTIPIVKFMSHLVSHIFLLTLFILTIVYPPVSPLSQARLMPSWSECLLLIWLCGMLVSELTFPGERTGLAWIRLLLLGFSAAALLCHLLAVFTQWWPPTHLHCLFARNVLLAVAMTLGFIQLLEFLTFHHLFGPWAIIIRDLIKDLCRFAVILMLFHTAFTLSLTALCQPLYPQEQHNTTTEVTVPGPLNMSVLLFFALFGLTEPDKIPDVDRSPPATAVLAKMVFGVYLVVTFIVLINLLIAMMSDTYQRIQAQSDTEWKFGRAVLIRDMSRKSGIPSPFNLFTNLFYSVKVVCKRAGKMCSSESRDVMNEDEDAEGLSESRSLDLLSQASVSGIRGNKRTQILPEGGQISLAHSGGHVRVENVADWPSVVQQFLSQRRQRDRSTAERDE", "test": "Fluorescence counterscreen assay for TRPML3 agonists: dose response cell-based high-throughput screening assay to identify agonists of the transient receptor potential channel N1 (TRPN1). [Related pubchem assays: 1526, 1424, 1448 ]", "format": "functional"}, "[11]": {"biological_target": "T1, Mucolipin-3", "test": "activators of mucolipin-3 and mucolipin-2 – cell-based, patch clamp, Fura-2 profiling panel, panel member TRPML3 Dose Response (AID 2116)"}, "[12]": {"biological_target": "T2, Ion channel NompC", "test": "activators of mucolipin-3 and mucolipin-2 – cell-based, […], Fura-2 profiling panel, panel member TRPN1 Dose Response (AID 2116)"}}, "note": "Calls of active or inactive are those of the source.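 For CC50 in this document: cells exposed to compound for 16 hours before readout.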", "data": [{"smiles": "CN1CCC(Oc2ccccc2Sc2ccccc2)CC1", "values": [{"measurement": "IC50", "setting": "[1]", "value": "13.6 µM (not active)"}, {"measurement": "IC50", "setting": "[2]", "value": "17.5 µM (not active)"}]}, {"smiles": "CN(Cc1ccco1)C(=O)Cn1nc(-c2ccc(Cl)cc2)ccc1=O", "values": [{"measurement": "CC50", "setting": "[3]", "value": "> 99 µM (not active)"}]}, {"smiles": "Cc1ccnc(NC(=O)CCCOc2cc(=O)n(C)c3ccccc23)c1", "values": [{"measurement": "EC50", "setting": "[4]", "value": "> 49.7 µM (not active)"}, {"measurement": "EC50", "setting": "[5]", "value": "7.87 µM (active)"}, {"measurement": "IC50", "setting": "[6]", "value": "62.4 µM (not active)"}, {"measurement": "IC50", "setting": "[7]", "value": "6.22 µM (active)"}, {"measurement": "IC50", "setting": "[8]", "value": "> 80 µM (inactive)"}]}, {"smiles": "Cc1ccc(N2CCN(S(=O)(=O)N3CCCCC3)CC2)c(C)c1", "values": [{"measurement": "EC50", "setting": "[9]", "value": "1.43 µM (active)"}, {"measurement": "EC50", "setting": "[10]", "value": "> 29.9 µM (not active)"}, {"measurement": "EC50", "setting": "[11]", "value": "2 µM (active)"}, {"measurement": "EC50", "setting": "[12]", "value": "> 29.9 µM (inactive)"}]}]}
